Activity calls are given as the source filed them. The rule behind the calls is not given here.
Tests used:
Vigna mungo [1] = assay: Root formation-promoting activity in Vigna mungo (black gram) cuttings at 1 x 10^-4 M relative to IBA (reference value: 35 +/- 8%); type: functional
Vigna mungo [2] = assay: Enhancement of hypocotyl swelling in intact Vigna mungo (black gram) seedlings at 1 x 10^-4 M; type: functional, organism-based
Vigna mungo [3] = assay: Enhancement of lateral root formation in intact Vigna mungo (black gram) seedlings at 1 x 10^-4 M; type: functional, organism-based
Vigna mungo [4] = assay: Enhancement of lateral root formation in intact Vigna mungo (black gram) seedlings at 1 x 10^-6 M; type: functional, organism-based
Vigna mungo [5] = assay: Enhancement of hypocotyl swelling in intact Vigna mungo (black gram) seedlings at 1 x 10^-6 M; type: functional, organism-based
[6] = tested on: Brassica rapa subsp. pekinensis; assay: Relative growth inhibitory activity of Brassica rapa subsp. pekinensis (Chinese cabbage) hypocotyl at 1 x 10^-7 to 1 x 10^-4 M
Vigna mungo [7] = assay: Induction of callus formation on Vigna mungo (black gram) seedlings at 3 x 10^-5 M after 3 days; type: functional, organism-based
Vigna mungo [8] = assay: Enhancement of lateral root formation in intact Vigna mungo (black gram) seedlings at 3 x 10^-6 M; type: functional, organism-based
Vigna mungo [9] = assay: Enhancement of hypocotyl swelling in intact Vigna mungo (black gram) seedlings at 3 x 10^-6 M; type: functional, organism-based
Vigna mungo [10] = assay: Ratio of compound activity to IBA activity for root formation-promoting activity in Vigna mungo (black gram) cuttings at 1 x 10^-4 M; type: functional
Vigna mungo [11] = assay: Induction of callus formation on Vigna mungo (black gram) seedlings at > 3 x 10^-3 M after 3 days; type: functional, organism-based
Vigna mungo [12] = assay: Enhancement of lateral root formation in intact Vigna mungo (black gram) seedlings at 3 x 10^-4 M; type: functional, organism-based
[13] = tested on: Brassica rapa subsp. pekinensis; assay: Growth inhibition of Brassica rapa subsp. pekinensis (Chinese cabbage) hypocotyl at 1 x 10^-7 to 1 x 10^-4 M; type: functional
Vigna mungo [14] = assay: Enhancement of hypocotyl swelling in intact Vigna mungo (black gram) seedlings at 3 x 10^-4 M; type: functional, organism-based
[15] = tested on: Brassica rapa subsp. pekinensis; assay: Ratio of IAA activity to compound activity for growth inhibition of Brassica rapa subsp. pekinensis (Chinese cabbage) hypocotyl at 1 x 10^-7 to 1 x 10^-4 M; type: functional

O=C(O)Cc1c[nH]c2ccccc12 [INDOLE-3-ACETIC ACID]
Activity (Vigna mungo [1]): 36% | Activity (Vigna mungo [2]): Active | Activity (Vigna mungo [3]): Active

O=C(O)Cc1c[nH]c2cccc(Cl)c12
Activity (Vigna mungo [1]): 384% | Activity (Vigna mungo [4]): Active | Activity (Vigna mungo [5]): Active | relative activity (%) [6]: 6% | Activity (Vigna mungo [7]): Active

O=C(O)CCCc1c[nH]c2ccccc12
Activity (Vigna mungo [1]): 100%

Cc1cccc2[nH]cc(CC(=O)O)c12
Activity (Vigna mungo [1]): 70% | Activity (Vigna mungo [8]): Active | relative activity (%) [6]: 40% | Activity (Vigna mungo [7]): Active | Activity (Vigna mungo [9]): Active

O=C(O)Cc1c[nH]c2cccc(C(F)(F)F)c12
Activity (Vigna mungo [1]): 156% | Ratio (Vigna mungo [10]): 1.5 | Activity (Vigna mungo [11]): Active | Activity (Vigna mungo [12]): Active | growth inhibition (GI) [13]: Active | Activity (Vigna mungo [14]): Active | Ratio [15]: 6

From ChEMBL document CHEMBL3046868, “Synthesis and biological activities of 4-trifluoromethylindole-3-acetic acid: a new fluorinated indole auxin” (2008)
